Test results as given in patent US8455495B2, “Pyridazino-pyridinone compounds and methods of use” (Amgen Inc., priority 2008, dated 2013).
Where two headings read alike, the source gives them in different places.

How the values were obtained:
recombinant human p38α = recombinant human p38α (Homo sapiens, UniProt Q16539); test: Purified and activated recombinant human p38α HTRF assay; format: biochemical; conditions: 1 nM p38α, 50 μM ATP, GST-ATF2 substrate, read-out: p38a IC50
Method: Purified and Activated Recombinant Human p38α Assay Kinase Reaction Buffer: […] HTRF Detection Buffer: […] Serial Dilution of Compounds: […] Columns 6 and 12 (HI controls and LO controls respectively) in the drug plate were reserved as controls and contained only DMSO. Kinase Reaction: […] See table below for actual concentrations. In the absence of substrate, the background was measured as LO control. […] Assay Reagent Concentrations: […] HTRF Detection: […] After 60 minutes incubation at room temperature, the assay plate was read in a Discovery Plate Reader. The wells were excited with coherent 320 nm light and the ratio of delayed ([…] post excitation) emissions at […] (native europium fluorescence) and 665 nm (europium fluorescence transferred to allophycocyanin-an index of substrate phosphorylation) was determined (Park et al, 1999). Data Analysis: […] Data (consisting of POC and inhibitor concentration in μM) was fitted to a 4-parameter equation ([…]))), where A is the minimum y (POC) value, B is the maximum y (POC), C is the x (compound concentration) at the point of inflection and D is the slope factor, using a Levenburg-Marquardt non-linear regression algorithm. The inhibition constant (Ki) of the inhibitor was estimated from the IC50 (compound concentration at the point of inflection C) using the Cheng-Prussof equation: […] All results were expressed as the mean±the standard error of the mean. Data acquisition and non-linear regression algorithms were performed using Activity Base v5.2 and XL-fit software v4.1 respectively. All data was archived using Activity Base v5.2 software.

[1] = test system: production of IL-1β, IL-6, and TNF-α by PBMC activated with LPS; test: Lipopolysaccharide-activated PBMC cytokine production assay; format: cell-based; conditions: Homo sapiens, read-out: IC50 in PBMC cytokine production assay
Method: Lipopolysaccharide-Activated Pbmc Cytokine Production Assay
Test compounds were evaluated in vitro for the ability to inhibit the production of IL-1β, IL-6, and TNF-α by PBMC activated with bacterial lipopolysaccharide (LPS). Fresh leukocytes were obtained from a local blood bank, and peripheral blood mononuclear cells (PBMCs) were isolated by density gradient centrifugation on Ficol-Paque Plus (Pharmacia).
Preparation of Test Compound Stock Solutions
All reagents were prepared in RPMI 1640+10% v/v human AB serum+1× Pens/Strep/Glu (assay medium). Test compounds were dissolved in 100% DMSO and serially diluted in 96-well polypropylene round bottom micro titer plates (drug plate). Serial dilutions were then diluted 1:250 into assay medium to a 4× working concentration. Compound serial dilutions were half-log, 10 point titrations with a final starting concentration of 1 μM.
Treatment of Cells with Test Compounds and Activation with Lipopolysaccharide
LPS was prepared to a 4× concentration in assay medium. 100 μl of PBMC (1×10^6 cells/ml) were plated in a 96-well polystyrene flat bottom micro titer tissue culture plate and incubated with 50 μl of 4× compound serial dilution for 1 hour at 37° C., 5% CO2 in a tissue culture incubator. 50 μl 4×LPS or control was added and the plates were incubated at 37° C., 5% CO2 in a tissue culture incubator for 18 hours. The final DMSO concentration was 0.1%. The total volume was 200 μL. The final LPS concentration was 100 ng/mL. After 18 hours culture supernatants were removed and IL-1β, IL-6, and TNF-α presence in the supernatants was quantified using MSD ECL based technology.
20 μL of culture supernatant were added to MSD plates, and incubated for one hour at room temperature. 20 μL of detection antibody diluted in antibody diluent (1 μg/mL), and 110 μL of 2× Read Buffer P was added, and incubated for one hour at RT. Electrochemiluminescence was measured using the SECTOR HTS Imager (MSD, Gaithersburg, Md.).
Compound IC50 values were calculated as follows: The proportion of cytokine production in the presence of compound compared to the cytokine production in the presence of the DMSO vehicle alone (Hi control) was calculated using the formula: Percent Control (POC)=(compound−average Lo)/(average Hi−average Lo)*100.

[2] = test system: TNF-α production by LPS-activated THP1 cells; test: Lipopolysaccharide-activated THP1 cell TNF production assay; format: cell-based; conditions: Homo sapiens, read-out: IC50 in THP-1 cellular TNF production assay
Method: Lipopolysaccharide-Activated THP1 Cell TNF Production Assay
THP1 cells were resuspended in fresh THP1 media (RPMI 1640, 10% heat-inactivated FBS, 1×PGS, 1×NEAA, plus 30 μM βME) at a concentration of 1.5×10^6 cells per mL. One hundred microliters of cells per well were plated in a polystyrene 96-well tissue culture plate. 1.5 micrograms per mL of bacterial LPS was prepared in THP1 media and transferred to the first 11 columns of a 96-well polypropylene plate. Column 12 contained only THP1 media for the LO control. Compounds were dissolved in 100% DMSO and serially diluted 3 fold in a polypropylene 96-well microtiter plate (drug plate). Columns 6 and 12 were reserved as controls (HI controls and LO controls respectively) and contained only DMSO. 10 μL of LPS followed by one microliter of inhibitor compound from the drug plate was transferred to the cell plate. The treated cells were induced to synthesize and secrete TNF-α in a 37° C. humidified incubator with 5% CO2 for 3 hours. Fifty microliters of conditioned media was transferred to a 96-well MULTI-ARRAY™ 96-well small spot plate—custom coated with MAB610 containing 100 μL of 2× Read Buffer P supplemented with 0.34 nM AF210NA polyclonal Ab labeled with ruthenium (MSD—Sulfo-TAG™—NHS ester). After an overnight incubation at room temperature with shaking, the reaction was read on the Sector Imager™ 6000. […] The amount of secreted TNF-α in the presence of test compounds compared with that in the presence of DMSO vehicle alone (HI control) was calculated using the formula: % control (POC)=(cpd−average LO)/(average HI−averageLO)*100. Data (consisting of POC and inhibitor concentration in μM) was fitted to a 4-parameter equation (y=A+((B−A)/(1+((x/C)^D))), where A is the minimum y (POC) value, B is the maximum y (POC), C is the x (cpd concentration) at the point of inflection and D is the slope factor) using a Levenburg-Marquardt non-linear regression algorithm.

[3] = test system: LPS-induced TNF-α production; test: Inhibition of LPS-induced TNF-α production in rats; format: in vivo; conditions: Rattus norvegicus, read-out: ED50, inhibition of LPS-induced TNF-α production
Method: Inhibition of LPS-Induced TNF-α Production Rats
LPS was diluted in PBS (100 μg per rat). Rats (n=6) were pretreated with vehicle or compound (0.03, 0.1, 0.3 and 1.0 mg/kg, PO) 60 minutes prior to the injection of LPS (100 μg per rat/IV, tail vein). Blood was harvested via decapitation 90 minutes following the administration of LPS. Blood was centrifuged at 12,000 rpm for 12 minutes to obtain plasma. Plasma samples were stored at −80 C. TNF-α levels were determined by ELISA for treatment groups that received LPS. Rat TNF-α levels were analyzed using rat TNF-α CytoSet kit from Biosource International. ELISA was completed according to the manufacturer's instructions. The concentration of TNF-α was interpolated from absorbance using the standard curve generated. For each individual sample, the TNF value from the dilution series that fell in the most linear portion of the standard curve was chosen and used for data analysis. The limit of quantitation of the ELISA was 1,000 pg/mL.

[4] = test system: collagen-induced arthritis; test: Collagen-induced arthritis (CIA) model in rats; format: in vivo; conditions: Rattus norvegicus, 168 h, read-out: ED50 in rat CIA model
Method: Collagen-induced Arthritis (CIA) Model in Rats
Porcine type II collagen (10 mg) was dissolved in 0.1N acetic acid (5 mL) two days prior to use on a rotating plate in the refrigerator. Subsequently, collagen was emulsified 1:1 with Freund's incomplete adjuvant using an emulsification needle and glass syringes yielding a final concentration of 1 mg/mL.
Disease was induced in each animal by intradermal injection of emulsified collagen in IFA at 10 different sites (100 μL per site) over the back. The clinical onset of arthritis varied between days 10 to 12 as indicated by hind paw swelling and ambulatory difficulties. At onset (defined as Day 0), rats were randomized to treatment groups and therapy was initiated with drug or vehicle control as noted in table above. Rats were treated for 7 days and were sacrificed on Day 8.

[5] = test system: TNF-α induced IL-8 in 50% human whole blood; test: Inhibition of TNF-α induced IL-8 in 50% human whole blood; format: cell-based; conditions: TNF-α (1 nM) induced IL-8, 50% human whole blood, 16-18 h, read-out: WB TNF/IL8 IC50
Method: Inhibition of TNF-α Induced IL-8 in 50% Human Whole Blood
Test compounds were evaluated in vitro for the ability to inhibit the production of secreted IL-8 by whole blood activated with TNF-α. Fresh human whole blood was obtained from healthy, non-medicated volunteers in sodium heparin tubes.
Compound Dilution—Assay Procedure
Test compounds are serially diluted 1:3 in DMSO and then diluted 1:250 into R10 (RPMI 1640, 10% human serum AB, 1× pen/strep/glutamine) to the 4× working concentration to be used in the assay. 100 ul heparinized whole blood is plated into wells of 96 well flat bottom plates. 50 ul of either 4× compound or DMSO control (Final DMSO concentration is 0.1%) are added to the appropriate wells. Plates are incubated for 1 hour at 37 degrees Celsius. 50 ul of 4×TNF-α (4 nM TNF-α, for a final concentration of 1 nM) or control (media alone) is added to the appropriate wells (Total volume=200 ul). Plates are incubated overnight (16-18 hours). 100 ul of supernatant is collected and stored in 96-well round bottom polypropylene plates at −80 degrees Celsius or assayed immediately for IL-8.
Cytokines are measured on antibody (Ab) sandwich ECL based 96-well detection plates. 20 ul of supernatant are added to plate and plate is sealed and shaken at RT for 1 hour. 130 ul of detection Ab cocktail is added and plates are sealed and shaken for 1 hour in the dark at RT. Plates are read on MSD Sector HTS instrument. Data are analyzed and IC50 values generated using Activity Base and X1-fit programs.

[6] = THP-1, THP1 cells, LPS, 3 hours

recombinant human p38α, sequence (Q16539 whole entry): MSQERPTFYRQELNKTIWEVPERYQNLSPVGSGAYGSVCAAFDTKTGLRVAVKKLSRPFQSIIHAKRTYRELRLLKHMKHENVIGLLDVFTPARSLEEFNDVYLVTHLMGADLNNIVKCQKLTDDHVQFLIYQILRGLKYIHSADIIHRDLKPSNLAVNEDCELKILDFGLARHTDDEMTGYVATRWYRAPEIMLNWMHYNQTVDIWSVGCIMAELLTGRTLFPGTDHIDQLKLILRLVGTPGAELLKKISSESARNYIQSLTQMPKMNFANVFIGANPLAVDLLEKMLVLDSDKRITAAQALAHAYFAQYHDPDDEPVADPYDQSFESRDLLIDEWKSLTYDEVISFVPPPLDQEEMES

Row | IC50 [2, 6] | IC50 [5] | SMILES | IC50 (recombinant human p38α) | IC50 ([1]; 18 h) | IC50 ([2]; THP-1, 3 h) | ED50 [3] | ED50 [4] | IC50 ([1]; LPS 100 ng/mL, 18 hours) | ED50 ([3]; rats, compound PO 60 minutes prior to LPS IV, plasma TNF-α 90 minutes after LPS) | ED50 ([4]; rats, treated for 7 days from onset of arthritis)
1 | – | – | Cc1ccc(C(=O)NC2CC2)cc1-c1cc2cnnc(-c3ccc(F)cc3F)c2n(C)c1=O [Example 1, N-cyclopropyl-3-(8-(2,4-difluorophenyl)-1-methyl-2-oxo-1,2-dihydropyrido[3,2-d]pyridazin-3-yl)-4-methylbenzamide] | 2.3 nM | ≤ 1000 nM | ≤ 1000 nM | 0.06 mg/kg | 0.03 mg/kg | – | – | –
2 | – | – | Cc1c(F)cc(C(=O)NC2CC2)cc1-c1cc2cnnc(-c3ccc(F)cc3F)c2n(C)c1=O [Example 3, N-cyclopropyl-3-(8-(2,4-difluorophenyl)-1-methyl-2-oxo-1,2-dihydropyrido[3,2-d]pyridazin-3-yl)-5-fluoro-4-methylbenzamide] | 1.7 nM | ≤ 1000 nM | ≤ 1000 nM | 0.04 mg/kg | – | – | – | –
3 | ≤ 1000 nM | – | Cc1c(F)cc(C(=O)NC2CC2)cc1-c1cc2cnnc(-c3ccccc3Cl)c2n(C)c1=O [Example 14, 3-(8-(2-chlorophenyl)-1-methyl-2-oxo-1,2-dihydropyrido[2,3-d]pyridazin-3-yl)-N-cyclopropyl-5-fluoro-4-methylbenzamide] | 2.4 nM | – | – | – | – | ≤ 1000 nM | 0.02 mg/kg | 0.03 mg/kg
4 | ≤ 1000 nM | 9.3 nM | Cc1ccc(C(=O)Nc2nccs2)cc1-c1cc2cnnc(-c3ccc(F)cc3Cl)c2n(C)c1=O [Example 24, 3-(8-(2-chloro-4-fluorophenyl)-1-methyl-2-oxo-1,2-dihydropyrido[2,3-d]pyridazin-3-yl)-4-methyl-N-1,3-thiazol-2-ylbenzamide] | 1 nM | – | – | – | – | ≤ 1000 nM | – | –
